Laboratory results published in paper PMC4186683 (Molecular Pharmaceutics, 2014).
Marks after values point to notes of the source that are not given here.

Tested on: not given
Assay: not given
Details: marked values, listed in Table 1; cited from earlier work

SMILES | log P C16/DAcPC
Cc1ccc(C)cc1 [compound 6, 1,4-dimethylbenzene] | 2.59 ^b
OCc1c2ccccc2cc2ccccc12 [compound 82, 9-anthracenemethanol] | –0.42 ^b
CC(C)(c1ccc(O)cc1)c1ccc(O)cc1 [compound 91, bisphenol A] | –2.70 ^b
CCCc1ccccc1 [compound 101, n-propylbenzene] | 2.98 ^b

Tested on: not given
Assay: not given
Details: DMPC bilayer; listed in Table 1; cited from earlier work

SMILES | log P bilayer/water exptl
Cc1ccc(C)cc1 [compound 6, 1,4-dimethylbenzene] | 2.98
OCc1c2ccccc2cc2ccccc12 [compound 82, 9-anthracenemethanol] | 3.50
OCc1ccccc1 [compound 89, benzylalcohol] | 2.03
CC(C)(c1ccc(O)cc1)c1ccc(O)cc1 [compound 91, bisphenol A] | 2.95
CCCc1ccccc1 [compound 101, n-propylbenzene] | 3.29

Tested on: not listed separately
Assay: Fraction of total tissue amount present in the bilayer, calculated from Pb/w
Details: bilayer volume 2.5% of tissue volume, no protein binding

SMILES | fraction of the total amount in the tissue present in the bilayer [%]
BrCCc1ccccc1 [compound 7, 1-bromo-2-phenylethane] | 93
CCCCCCO [compound 11, 1-hexanol] | 68
Cc1cc(O)ccc1Cl [compound 74, 4-chloro-3-methylphenol] | 97
OCc1c2ccccc2cc2ccccc12 [compound 82, 9-anthracenemethanol] | 99
c1ccc2[nH]ccc2c1 [compound 111, indole] | 81

Tested on: rhodopsin
Assay: not given
Details: 1-palmitoyl-2-oleoyl-PC vesicles ref 132; cited from earlier work

SMILES | effect on photolysis of rhodopsin
CCCCCCO [compound 11, 1-hexanol] | negligible
CCO [compound 94, ethanol] | promoting effect
CCCCO [compound 113, 1-butanol] | promoting effect
CCCCCO [compound 114, 1-pentanol] | promoting effect
CCCCCCCO [compound 115] | inhibitory effect
CCCCCCCCO [compound 116] | inhibitory effect

Tested on: not given
Assay: not given
Details: experimental values from the ClogP database ref 119; cited from earlier work

SMILES | logP O/W
Clc1ccccc1Cl [compound 1, 1,2-dichlorobenzene] | 3.43
Clc1cc(Cl)cc(Cl)c1 [compound 2, 1,3,5-trichlorobenzene] | 4.19
Clc1cccc(Cl)c1 [compound 3, 1,3-dichlorobenzene] | 3.53
Cc1cccc(C)c1[N+](=O)[O-] [compound 4, 1,3-dimethyl-2-nitrobenzene] | 2.95
BrCCc1ccccc1 [compound 7, 1-bromo-2-phenylethane] | 3.09
BrCCCc1ccccc1 [compound 8, 1-bromo-3-phenylpropane] | 3.72
Clc1ccc(Br)cc1 [compound 9, 1-bromo-4-chlorobenzene] | 3.54
Brc1cccc2ccccc12 [compound 10, 1-bromonaphthalene] | 4.06
Clc1ccc(-c2ccc(Cl)c(Cl)c2Cl)c(Cl)c1Cl [compound 14, 2,2′,3,3′,4,4′-hexachlorobiphenyl] | 7.32
Clc1cccc(-c2ccc(Cl)c(Cl)c2Cl)c1Cl [compound 16, 2,2′,3,3′,4-pentachlorobiphenyl] | 6.30
Clc1ccc(Cl)c(-c2c(Cl)ccc(Cl)c2Cl)c1Cl [compound 17, 2,2′,3,3′,6,6′-hexachlorobiphenyl] | 7.12
Clc1cccc(-c2cccc(Cl)c2Cl)c1Cl [compound 18, 2,2′,3,3′-tetrachlorobiphenyl] | 6.18
Clc1ccc(Cl)c(-c2cccc(Cl)c2Cl)c1 [compound 21, 2,2′,3,5′-tetrachlorobiphenyl] | 5.81
Clc1ccccc1-c1cccc(Cl)c1Cl [compound 23, 2,2′,3-trichlorobiphenyl] | 5.60
Clc1cc(Cl)c(-c2c(Cl)cc(Cl)cc2Cl)c(Cl)c1 [compound 24, 2,2′,4,4′,6,6′-hexachlorobiphenyl] | 7.29
Clc1ccc(Cl)c(-c2cc(Cl)c(Cl)cc2Cl)c1 [compound 25, 2,2′,4,5,5′-pentachlorobiphenyl] | 6.85
Clc1cc(Cl)c(-c2ccccc2Cl)cc1Cl [compound 26, 2,2′,4,5-tetrachlorobiphenyl] | 6.27
Clc1ccc(-c2cc(Cl)ccc2Cl)c(Cl)c1 [compound 27, 2,2′,4,5′-tetrachlorobiphenyl] | 6.36
Clc1ccc(-c2ccccc2Cl)c(Cl)c1 [compound 28, 2,2′,4-trichlorobiphenyl] | 5.76
Clc1ccc(Cl)c(-c2cc(Cl)ccc2Cl)c1 [compound 29, 2,2′,5,5′-tetrachlorobiphenyl] | 6.26
Clc1ccccc1-c1c(Cl)cccc1Cl [compound 31, 2,2′,6-trichlorobiphenyl] | 5.47
Clc1ccccc1-c1ccccc1Cl [compound 33, 2,2′-dichlorobiphenyl] | 4.97
Clc1c(Cl)c(Cl)c(-c2ccccc2)c(Cl)c1Cl [compound 35, 2,3,4,5,6-pentachlorobiphenyl] | 6.74
Clc1cc(-c2ccccc2)c(Cl)c(Cl)c1Cl [compound 36, 2,3,4,5-tetrachlorobiphenyl] | 6.41
Clc1cccc(-c2cc(Cl)ccc2Cl)c1 [compound 39, 2,3′,5-trichlorobiphenyl] | 5.76
Clc1ccc(Cl)c(-c2ccccc2)c1Cl [compound 40, 2,3,6-trichlorobiphenyl] | 5.67
Clc1cccc(-c2c(Cl)cccc2Cl)c1 [compound 41, 2,3′,6-trichlorobiphenyl] | 5.67

SMILES | logP O/W
Nc1cc2ccccc2cc1N [compound 42, 2,3-diaminonaphthalene] | 1.54
Clc1cccc(-c2ccccc2)c1Cl [compound 43, 2,3-dichlorobiphenyl] | 4.99
Clc1cccc(-c2ccccc2Cl)c1 [compound 44, 2,3′-dichlorobiphenyl] | 5.02
Nc1cc(Cl)c(Cl)cc1Cl [compound 45, 2,4,5-trichloroaniline] | 3.69
Clc1cc(Cl)c(-c2ccccc2)cc1Cl [compound 46, 2,4,5-trichlorobiphenyl] | 5.90
Clc1cc(Cl)c(-c2ccccc2)c(Cl)c1 [compound 47, 2,4,6-trichlorobiphenyl] | 5.71
Clc1ccc(-c2c(Cl)cccc2Cl)cc1 [compound 48, 2,4′,6-trichlorobiphenyl] | 5.75
Clc1ccc(-c2ccccc2)c(Cl)c1 [compound 49, 2,4-dichlorobiphenyl] | 5.30
Clc1ccc(-c2ccccc2Cl)cc1 [compound 50, 2,4′-dichlorobiphenyl] | 5.10
Clc1ccc(Cl)c(-c2ccccc2)c1 [compound 51, 2,5-dichlorobiphenyl] | 5.16
Cc1ccc(C)c(O)c1 [compound 52, 2,5-dimethylphenol] | 2.33
Clc1cccc(Cl)c1-c1ccccc1 [compound 53, 2,6-dichlorobiphenyl] | 4.98
COc1cccc(OC)c1O [compound 54, 2,6-dimethoxyphenol] | 1.15
Cc1ccccc1Br [compound 57, 2-bromotoluene] | 3.50
Clc1ccccc1-c1ccccc1 [compound 58, 2-chlorobiphenyl] | 4.53
Cc1ccc2cc3ccccc3cc2c1 [compound 60, 2-methylanthracene] | 5.00
Nc1cccc(Br)c1 [compound 63, 3-bromoaniline] | 2.10
CC(=O)c1ccc(N)cc1 [compound 68, 4-aminoacetophenone] | 0.86
Nc1ccc(Br)cc1 [compound 71, 4-bromoaniline] | 2.11
Cc1cc(O)ccc1Cl [compound 74, 4-chloro-3-methylphenol] | 3.10
O=C(c1ccccc1)c1ccc(Cl)cc1 [compound 75, 4-chlorobenzophenone] | 3.79
CN(C)c1ccc(C=O)cc1 [compound 77, 4-dimethylamino-benzaldehyde] | 2.01
Cc1ccc([N+](=O)[O-])cc1 [compound 79, 4-nitrotoluene] | 2.37
CCCCCc1ccc(O)cc1 [compound 80, 4-n-pentylphenol] | 4.24
Clc1ccccc1 [compound 92, chlorobenzene] | 2.89
CCOC(=O)c1cccnc1 [compound 95, ethylnicotinate] | 1.32
c1ccc2c(c1)ccc1ccccc12 [compound 104, phenanthrene] | 4.46
